This is an account of results in patent US20050032221A1, “Dominant negative variants of methionine aminopeptidase 2 (MetAP2) and clinical uses thereof” (priority 2001, published 2005).

Test [1] deals with peptide substrate (MGMM). Nature of the test: MetAP activity assay of immunopurified HA-tagged yeast MetAP2 with Met-Gly-Met-Met. As to conditions: immunopurified HA-tagged enzyme from map1Δ. The format is biochemical. Here is the method:
[…]. Approximately 2 μg of purified wild-type MetAP2 (WT) and MetAP2 (H174A) was separated on a 10% SDS-PAGE gel and visualized with coomassie blue staining. Specific activity for the wild-type MetAP2 was 11±0.5 U/mg.
The purification of HA-tagged wild-type and mutant yeast MetAP2 from a yeast map1Δ strain (Klinkenberg et al., Arch. Biochem. Biophys. 347:193-200, 1997) was performed as previously described (Li and Chang, 1995) with slight modifications. A 1-liter yeast culture was grown aerobically at 30° C. in SG/Leu^− medium. Cells were collected at an OD600˜1-2 by centrifugation at 1500×g for 5 min. The pellet was rinsed with buffer XL (10 mM Hepes, pH 7.4; 1.5 mM MgCl2, 10% Glycerol [v/v]) plus 100 mM NaCl and fresh protease inhibitors (1 μg/ml aprotinin, 1 μg/ml leupeptin, 0.7 μg/ml pepstatin A, 1 mM phenylmethylsulfonyl fluoride). Cells were disrupted by vortexing (5 cycles of 1 min vortexing, 1 min on ice) with 0.5-mm acid-washed glass beads (Biospec Products, Inc.,). The lysate was then cleared at 10,000×g for 20 min at 4° C. Cleared lysate was applied to a Protein-Sepharose G column (Pharmacia) previously rinsed and pre-equilibrated with buffer XL and an anti-hemagglutinin epitope ([…]; SEQ ID NO:23) monoclonal antibody (BabCO). After loading, the column was washed with buffer XL until OD280<0.01. […]

The subject of test [2] is yeast map1Δ strain. Kind of test: Yeast growth assay, map1Δ, expression under GAL1 promoter. The format is cell-based, yeast (S. cerevisiae). The method, then: A haploid yeast map1Δ strain was transformed to leucine prototrophy with p425GAL1/MAP2 wild-type (WT), p425GAL1/map2 (H174A), or p425GAL1 vector alone (V). Each strain was grown to mid-logarithmic phase at 30° C. in minimal synthetic raffinose medium lacking leucine. Approximately 2×10^5 cells (ABS600) were then streaked onto minimal synthetic plates lacking leucine and supplemented with (A) glucose or (B) galactose. Plates were incubated for 4 days at 30° C.
A haploid yeast map1Δ strain was transformed to leucine prototrophy with p425GAL1/MAP2 wild-type (WT), p425GAL1/map2 ([…]), p425GAL1/map2 (Δ2-57/H174A) or p425GAL1 vector alone (V). Each strain was grown to mid-logarithmic phase at 30° C. in minimal synthetic raffinose medium lacking leucine. […]
For relative growth comparison, strains were grown to mid-logarithmic phase in 5 ml of 2% raffinose minimal media lacking leucine and ˜2×10^5 cells (ABS600) were streaked onto SD/Leu^− or SG/Leu^− plates, then incubated for 4 days at 30° C. For quantitative comparison, a growth curve was obtained (FIG. 4). […] The ABS600 of each 1 mL culture was measured and diluted to an ABS600 of 0.2 in 5 mL of SG/Leu^−. Each 5 mL culture was then grown aerobically at 30° C. and the ABS600 was measured in triplicate at one-hour intervals.

Sequence of peptide substrate (MGMM) (P38174 whole entry H174A): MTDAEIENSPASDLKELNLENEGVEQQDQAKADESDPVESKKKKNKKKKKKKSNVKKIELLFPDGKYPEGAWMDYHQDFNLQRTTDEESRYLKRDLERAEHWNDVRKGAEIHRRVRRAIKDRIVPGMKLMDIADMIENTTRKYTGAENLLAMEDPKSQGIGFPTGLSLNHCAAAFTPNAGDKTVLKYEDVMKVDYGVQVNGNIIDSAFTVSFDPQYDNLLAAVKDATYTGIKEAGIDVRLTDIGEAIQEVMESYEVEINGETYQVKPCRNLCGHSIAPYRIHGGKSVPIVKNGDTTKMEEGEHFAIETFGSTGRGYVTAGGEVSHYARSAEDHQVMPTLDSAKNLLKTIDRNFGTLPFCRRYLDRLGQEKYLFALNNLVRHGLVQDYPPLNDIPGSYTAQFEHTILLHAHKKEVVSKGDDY

Take “MetAP2 (H174A): variant yeast MetAP2 with His174 replaced by alanine, N-terminal HA tag; dominant negative (SEQ ID NO:8)”: the “activity against a peptide substrate (MGMM) in vitro” value in test [1] is “no detectable activity”. The doubling time in test [2] (SG/Leu- medium, 30° C.) was determined as 9.3 ± 0.6 h. In addition, in test [2] (galactose plates, 4 days at 30° C.), the “colony size / growth relative to map1Δ with vector alone” value is reported as “smaller colonies”.
